“And” between values parts separate entries of the source, which are not always exact repeats. Equal entries are not always repeated. Toxic doses and inconclusive results are not listed. No stated cut-off is given here; in the data, active means T/C of 150% or more; inactive means T/C below 125%.
Test system: L1210 leukemia ip in BDF1 mice, survival T/C
Experiment: NCI In Vivo Anticancer Drug Screen. Data for tumor model L1210 Leukemia (intraperitoneal) in B6D2F1 (BDF1) mice
Settings: endpoint: mean survival time, higher = longer survival
In short: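 Tumor was transplanted into mice, which were then dosed with test compound or vehicle alone. Survival was recorded for each group, and the treated figure was expressed relative to the control figure.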

[1] = dose: 100.0 mg/kg/injection, schedule: Q01DX001 (ip), vehicle: saline
[2] = dose: 200.0 mg/kg/injection, schedule: Q01DX001 (ip), vehicle: saline
[3] = dose: 400.0 mg/kg/injection, schedule: Q01DX001 (ip), vehicle: saline
[4] = dose: 50.0 mg/kg/injection, schedule: Q01DX001 (ip), vehicle: saline
[5] = dose: 100.0 mg/kg/injection, schedule: Q04DX002 (ip), vehicle: Klucel (hydroxypropylcellulose) (HPC)
[6] = dose: 200.0 mg/kg/injection, schedule: Q04DX002 (ip), vehicle: Klucel (hydroxypropylcellulose) (HPC)
[7] = dose: 400.0 mg/kg/injection, schedule: Q04DX002 (ip), vehicle: Klucel (hydroxypropylcellulose) (HPC)
[8] = dose: 100.0 mg/kg/injection, schedule: Q01DX009 (ip), vehicle: Klucel (hydroxypropylcellulose) (HPC)
[9] = dose: 100.0 mg/kg/injection, schedule: Q04DX003 (ip), vehicle: Klucel (hydroxypropylcellulose) (HPC)
[10] = dose: 200.0 mg/kg/injection, schedule: Q01DX009 (ip), vehicle: Klucel (hydroxypropylcellulose) (HPC)
[11] = dose: 200.0 mg/kg/injection, schedule: Q04DX003 (ip), vehicle: Klucel (hydroxypropylcellulose) (HPC)
[12] = dose: 400.0 mg/kg/injection, schedule: Q01DX009 (ip), vehicle: Klucel (hydroxypropylcellulose) (HPC)
[13] = dose: 400.0 mg/kg/injection, schedule: Q04DX003 (ip), vehicle: Klucel (hydroxypropylcellulose) (HPC)
[14] = dose: 50.0 mg/kg/injection, schedule: Q01DX001 (ip), vehicle: carboxymethylcellulose (CMC)
[15] = dose: 400.0 mg/kg/injection, schedule: Q01DX001 (ip), vehicle: carboxymethylcellulose (CMC)

Measured: T/C

CCC(CC)COCCCN
inactive: dose: 12.5 mg/kg/injection, schedule: Q01DX009 (ip), vehicle: saline with Tween-80 97 % of control | dose: 12.5 mg/kg/injection, schedule: Q04DX003 (ip), vehicle: saline with Tween-80 97 % of control | dose: 25.0 mg/kg/injection, schedule: Q01DX009 (ip), vehicle: saline with Tween-80 98 % of control | dose: 25.0 mg/kg/injection, schedule: Q04DX003 (ip), vehicle: saline with Tween-80 95 % of control | dose: 50.0 mg/kg/injection, schedule: Q01DX009 (ip), vehicle: saline with Tween-80 93 % of control | dose: 50.0 mg/kg/injection, schedule: Q04DX003 (ip), vehicle: saline with Tween-80 94 % of control

c1ccc2c(c1)ccc1cc3cccc[n+]3cc12
inactive: dose: 0.31 mg/kg/injection, schedule: Q01DX009 (ip), vehicle: saline 98 % of control | dose: 0.62 mg/kg/injection, schedule: Q01DX009 (ip), vehicle: saline 98 % of control | dose: 1.25 mg/kg/injection, schedule: Q01DX009 (ip), vehicle: saline 101 % of control and 104 % of control | dose: 5.0 mg/kg/injection, schedule: Q04DX003 (ip), vehicle: saline 102 % of control | dose: 10.0 mg/kg/injection, schedule: Q04DX003 (ip), vehicle: saline 96 % of control

C(=N\N1CCN(/N=C/c2ccc(-c3ccccc3)cc2)CC1)/c1ccc(-c2ccccc2)cc1
inactive: [1] 94 % of control | [2] 97 % of control | [3] 94 % of control

O=C(Cc1ccccc1)NCc1ccccc1
inactive: dose: 25.0 mg/kg/injection, schedule: Q01DX001 (ip), vehicle: saline 97 % of control | [4] 101 % of control | [1] 104 % of control | [2] 104 % of control

O=S(=O)(OCCCl)c1ccc(Cl)c(S(=O)(=O)OCCCl)c1
inactive: dose: 100.0 mg/kg/injection, schedule: Q04DX003 (ip), vehicle: saline with Tween-80 97 % of control

CC(=Nc1c2c(nc3ccccc13)CCCC2)N(C)C
inactive: dose: 12.0 mg/kg/injection, schedule: Q04DX003 (ip), vehicle: Klucel (hydroxypropylcellulose) (HPC) 105 % of control | dose: 25.0 mg/kg/injection, schedule: Q04DX003 (ip), vehicle: Klucel (hydroxypropylcellulose) (HPC) 100 % of control | dose: 50.0 mg/kg/injection, schedule: Q04DX003 (ip), vehicle: Klucel (hydroxypropylcellulose) (HPC) 104 % of control

CCc1nc(N[N+](=O)[O-])nc(-c2ccccc2)c1-c1ccccc1O
inactive: [5] 107 % of control | [6] 94 % of control | [7] 107 % of control

Cc1ccc(NC(=O)Nc2cccc3ccccc23)cc1Cl
inactive: [8] 99 % of control | [9] 91 % of control | [10] 94 % of control | [11] 86 % of control | [12] 97 % of control | [13] 90 % of control

O=c1[nH]cnc2c1nc([Se])n2C1OC(CO)C(O)C1O (stereo unspecified)
inactive: dose: 100.0 mg/kg/injection, schedule: Q01DX005 (ip), vehicle: saline 102 % of control | dose: 200.0 mg/kg/injection, schedule: Q01DX005 (ip), vehicle: saline 107 % of control

Cc1nnc2c3ccccc3cnn12
inactive: dose: 75.0 mg/kg/injection, schedule: Q01DX001 (ip), vehicle: carboxymethylcellulose (CMC) 98 % of control | dose: 150.0 mg/kg/injection, schedule: Q01DX001 (ip), vehicle: carboxymethylcellulose (CMC) 97 % of control | dose: 300.0 mg/kg/injection, schedule: Q01DX001 (ip), vehicle: carboxymethylcellulose (CMC) 98 % of control

OC(C(c1ccccc1)N1CCCCC1)C(O)(c1ccccc1)c1ccccc1 (stereo unspecified)
inactive: dose: 100.0 mg/kg/injection, schedule: Q01DX001 (ip), vehicle: saline sonified 97 % of control | dose: 200.0 mg/kg/injection, schedule: Q01DX001 (ip), vehicle: saline sonified 108 % of control | dose: 400.0 mg/kg/injection, schedule: Q01DX001 (ip), vehicle: saline sonified 93 % of control

O=c1cc[nH]c(=O)o1
inactive: dose: 63.0 mg/kg/injection, schedule: Q01DX009 (ip), vehicle: water 89 % of control

COC1C=CC2OC(c3ccccc3)OCC2O1 (stereo unspecified)
inactive: dose: 100.0 mg/kg/injection, schedule: Q01DX001 (ip), vehicle: other 101 % of control | dose: 200.0 mg/kg/injection, schedule: Q01DX001 (ip), vehicle: other 101 % of control | dose: 400.0 mg/kg/injection, schedule: Q01DX001 (ip), vehicle: other 109 % of control

CN(C)P1(=O)N(C)CCN1C
inactive: [1] 100 % of control | [2] 98 % of control | [3] 94 % of control

O=C(Nc1ccc(Cl)cc1)Oc1ccc(Br)cc1Br
inactive: [8] 100 % of control | [10] 96 % of control | [12] 104 % of control

O=C(O)C(O)(Cc1ccccc1)C(=O)C(O)C(O)CO (stereo unspecified)
inactive: dose: 50.0 mg/kg/injection, schedule: Q04DX002 (ip), vehicle: saline 87 % of control | dose: 100.0 mg/kg/injection, schedule: Q04DX002 (ip), vehicle: saline 106 % of control | dose: 200.0 mg/kg/injection, schedule: Q04DX002 (ip), vehicle: saline 91 % of control

O=C(Nc1ccccc1)/C(Cl)=C/O
inactive: [5] 91 % of control | [6] 94 % of control | [7] 97 % of control

Cc1cccc(NC(=O)NCCCl)c1Cl
inactive: [8] 97 % of control | [9] 97 % of control | [10] 97 % of control | [11] 94 % of control | [12] 100 % of control | [13] 94 % of control

O=[N+]([O-])c1ccc(C2OC3CC4C5CCCC5C3C4O2)cc1 (stereo unspecified)
inactive: [14] 87 % of control | dose: 100.0 mg/kg/injection, schedule: Q01DX001 (ip), vehicle: carboxymethylcellulose (CMC) 87 % of control | dose: 200.0 mg/kg/injection, schedule: Q01DX001 (ip), vehicle: carboxymethylcellulose (CMC) 91 % of control | [15] 91 % of control

CCCCCCCCCCCCCCCCCC(=O)N/N=C/CCc1ccccc1
inactive: dose: 100.0 mg/kg/injection, schedule: Q01DX009 (ip), vehicle: saline with Tween-80 87 % of control

C1CCC(CCCC(CCCC2CCCC2)CCCC2CCCC2)C1
inactive: dose: 100.0 mg/kg/injection, schedule: Q01DX001 (ip), vehicle: saline with Tween-80 93 % of control | dose: 200.0 mg/kg/injection, schedule: Q01DX001 (ip), vehicle: saline with Tween-80 93 % of control | dose: 400.0 mg/kg/injection, schedule: Q01DX001 (ip), vehicle: saline with Tween-80 89 % of control

CCOc1ccc(NC(=O)OCCOc2ccccc2)cc1
inactive: [8] 104 % of control | [10] 100 % of control | [12] 94 % of control

CN(C)c1nc2c(=O)[nH]cnc2n1C1OC(CO)C(O)C1O (stereo unspecified)
inactive: [4] 95 % of control | [1] 93 % of control | [2] 112 % of control | [3] 95 % of control

O=c1[nH]nc(-c2ccc(Cl)cc2Cl)s1
inactive: [9] 95 % of control | [11] 101 % of control | [13] 112 % of control

CC/C(=N/NC(N)=O)c1ccccc1Cl
inactive: [1] 97 % of control | [2] 96 % of control | [3] 106 % of control

CN(C)N(P(N)(Cl)(c1ccccc1)c1ccccc1)P(N)(Cl)(c1ccccc1)c1ccccc1
inactive: dose: 5.0 mg/kg/injection, schedule: Q01DX001 (ip), vehicle: steriod suspending solution 100 % of control | dose: 10.0 mg/kg/injection, schedule: Q01DX001 (ip), vehicle: steriod suspending solution 105 % of control | dose: 20.0 mg/kg/injection, schedule: Q01DX001 (ip), vehicle: steriod suspending solution 97 % of control | dose: 40.0 mg/kg/injection, schedule: Q01DX001 (ip), vehicle: steriod suspending solution 103 % of control | dose: 80.0 mg/kg/injection, schedule: Q01DX001 (ip), vehicle: steriod suspending solution 94 % of control

O=C1OC(/C=C/c2ccccc2)=NC/1=C\c1cccc([N+](=O)[O-])c1
inactive: dose: 25.0 mg/kg/injection, schedule: Q04DX002 (ip), vehicle: Klucel (hydroxypropylcellulose) (HPC) 93 % of control | dose: 50.0 mg/kg/injection, schedule: Q04DX002 (ip), vehicle: Klucel (hydroxypropylcellulose) (HPC) 104 % of control | [5] 89 % of control

ClC1(Cl)C2CC(C3C4C=CC(C4)C32)C1(Cl)Cl (stereo unspecified)
inactive: [14] 88 % of control | [15] 101 % of control

CCOC(=O)C(C(=O)OCC)c1nc(=O)[nH]c(=O)[nH]1
inactive: dose: 100.0 mg/kg/injection, schedule: Q01DX Z (ip), vehicle: methylcellulose (MC) 97 % of control

CC(=O)OCC1OC(n2ccc(=O)[nH]c2=O)C(OC(C)=O)C1OC(C)=O (stereo unspecified)
inactive: [1] 100 % of control | [2] 103 % of control | [3] 106 % of control

Source: PubChem BioAssay AID248 (DTP/NCI, 2004)
